According to US8420345B2, “Method for identifying at least two groups of microorganisms” (Biomerieux, priority 2006, dated 2013):

Legend:
[1] = tested on: the other serotypes (salmonella); assay: Example 3: esterase substrate preference, conclusion from table 4; type: cell-based; conditions: coloration intensities being stronger for this substrate
Protocol: (§1) The media thus constituted were distributed into Petri dishes.
(§2) Various salmonella serotypes were inoculated, using a 10 μl calibrated loop, onto each medium, using calibrated suspensions of 0.5 McFarland. All the cultures were incubated for 24 h at 37° C.
(§3) The growth and coloration results obtained at 24 h of incubation are given in table 3, in which G signifies growth, C signifies color, I signifies colorless, In signifies coloration intensity, the sign ++ signifies very good growth, the sign + signifies good growth of the strain, the sign +/− signifies moderate growth of the strain and the sign − signifies lack of growth of the strain. 1 corresponds to a weak coloration intensity, 2 corresponds to moderate and 3 corresponds to strong.
As a result of this, a medium containing these two substrates of the same enzymatic activity makes it possible to obtain colored colonies for the various salmonella serotypes, and to separate the Dublin serotype from the other salmonella serotypes and from bacteria not expressing esterase.

[2] = tested on: S. enteritidis serotype Dublin; assay: Example 3: colony color, coloration intensity and growth on Columbia agar with esterase substrates; type: cell-based; conditions: X—C8 versus Magenta-C8
Protocol: as §1, §2, §3

SMILES | preferential hydrolysis by esterase activity [1] | specificity of hydrolysis by esterase activity [2]
CCCCCCCC(=O)Oc1c[nH]c2cc(Cl)c(Br)cc12 [Magenta-C8, 5-Bromo-6-Chloro-3-Indoxyl Octanoate] | preferentially hydrolyze Magenta-C8 | 
CCCCCCCC(=O)Oc1c[nH]c2ccc(Br)c(Cl)c12 [X—C8, 5-Bromo-4-Chloro-3-Indoxyl Octanoate] |  | hydrolyzes X—C8 more specifically than Magenta-C8
